The values below come from publication PMC10384408, “Anticancer Tungstenocenes with a Diverse Set of (O,O–), (O,S–) and (O,N–) Chelates—A Detailed Biological Study Using an Improved Evaluation via 3D Spheroid Models” (Pharmaceutics, 2023).

The structures appear in SMILES notation.

One data set relates to MCF-7 spheroids. Put plainly: Spheroid growth, MCF-7. Particulars: 10 µM, 96 h treatment. It is filed as cell-based, human. The procedure: (§1) For growing multicellular tumor spheroids, 400 HCT116, 400 HT29 or 800 MCF-7 cells per well were plated into round-bottom ultra-low attachment 96-well plates (Corning, Glendale, AZ, USA) in the media described above and incubated at 37 °C for 96 h. Spheroids were treated with 10 µM of the two most cytotoxic compounds 3 and 4 for another 96 h. The diameters of the spheroids were measured with Cell^F software under a CKX41 Olympus microscope before treatment and in constant daily intervals over the 96 h treatment period. For statistical analysis the t-test with Welsh’s correction was implemented in GraphPad Prism software (Version 6.01).

The nature of data set [1]: Aqueous stability by UV/Vis in PBS. The class given is physicochemical. The note with it: 24 h, 293 K, 1 vol% DMSO. The protocol:
Stock solutions in DMSO of compounds 1–10 were utilized to determine the solubility in PBS by adding 1 vol% of the stock solution to a suitable amount of PBS. […] UV/Vis data were recorded on a Perkin Elmer Lambda 650 UV/Vis Spectrophotometer with a Peltier element for temperature control.
In order to examine the stability of the compounds in aqueous solution, UV/Vis measurements were performed every hour during 24 h at 293 K. Solutions of compounds 1–10 were prepared in PBS (10%) from a previously prepared DMSO stock solution of each compound. The total concentration of DMSO was 1 vol% for the final complex solutions of 1–10.

The next data set has as its system pUC19 plasmid. Nature of the data set: Electrophoretic dsDNA plasmid assay. It is filed as biochemical. The note with it: 50 µM, up to 6 h, 37 °C. The procedure: An amount of 400 ng of the pUC19 plasmid (2686 bp, New England Biolabs, Ipswich, MA, USA) was incubated with the test compounds (50 µM). Stock solutions of the test compounds were prepared in MilliQ water. The samples were incubated for different intervals (15 min to 6 h) with continuous shaking at 37 °C. Following the incubation time, 4 µL aliquots of 6 × DNA loading dye (Thermo Fisher, Kandel, Germany) were added to the 20 µL DNA samples. Electrophoresis was performed in a 1% agarose gel in 1 × TBE buffer, started at 60 V for 5 min and continued at 120 V for 90 min. Ethidium bromide (EtBr, Serva Electrophoresis GmbH, Heidelberg, Germany) staining was conducted in 1 × TBE (0.75 µg/mL) for 20 min. Images were taken by the GelDoc Imaging System Fusion F×7 (Vilber Lourmat, Eberhardzell, Germany). For quantification ImageJ/Fiji1.46 was used.

Another data set has as its system HT29 spheroids. Nature of the data set: Spheroid growth, HT29. The class given is cell-based, human. Particulars: 10 µM, 96 h treatment. The protocol: as §1
Data set [2] deals with HCT116 spheroids. Put plainly: KI67 immunofluorescence staining of cryo-sectioned spheroids. It is filed as cell-based, human. The note with it: 72 h; for KI67+ cells: untreated control 38.1 ± 7.3 %. The protocol: Spheroids were grown and cryosectioned, as described in the section above. For immunofluorescence staining the samples were fixed with 4% PFA (in PBS) for 15 min. The slides were washed with PBS before permeabilization with 0.1% Triton-X (Sigma-Aldrich, Steinheim, Germany) for 10 min. After three times washing with PBS the samples were stained for 45 min with 10% goat serum (G9023, Sigma-Aldrich) und 5% BSA for avoiding non-specific antibody binding. After one washing step a primary antibody against Ki67 (#9129, Cell Signaling Technology) was applied and samples incubated overnight at 4 °C. On the next day, slides were washed with PBS and incubated with goat anti-rabbit Alexa Fluor 594 (#8889 Cell Signaling Technology) for 1 h at room temperature in the dark, followed by two washing steps with PBS. Slides were mounted with ProlonGold Antifade Reagent with DAPI (Invitrogen, Thermo Fisher) and analyzed with a confocal laser scanning microscope Zeiss LSM800 (Zeiss, Jena, Germany). Images were processed with Zen software (Zeiss). For fluorescence signal intensities data extraction ImageJ/Fiji1.46 was used. For quantification, the maximum signal intensity of the KI67^+ cells was evaluated relative to the untreated control. For statistical analysis the t-test with Welsh’s correction was implemented in GraphPad Prism software (Version 6.01).

The subject of data set [3] is HCT116 spheroids. Nature of the data set: Spheroid growth, HCT116. The note with it: 10 µM, 96 h treatment. The class given is cell-based, human. The protocol:
as §1

A short description of data set [4]: Cell-free DCF fluorescence quenching assay. The procedure:
To verify interactions of complex 4 with the fluorescence of DCF (2′,7′-dichlorofluorescein, Sigma-Aldrich), a fluorescence quenching assay was performed. For this purpose, DCF was dissolved in abs. ethanol (Sigma-Aldrich), diluted in phenol-red-free MEM (1% FBS) to 5 µM and complex 4 dissolved in DMF, diluted to 20 and 200 µM in the same medium. Furthermore, two combinations of 5 µM DCF with 20 and 200 µM of complex 4 were prepared. The fluorescence intensity of the substances alone and their combinations were measured (excitation: 485/20 nm, emission: 516/20 nm) in 10 min intervals with the Synergy HT reader (BioTek) over 2 h.

Another data set deals with MCF-7 cells. Particulars: 200 µM.
The subject of the next data set is HT29 cells. Particulars: 200 µM.

`F[P-](F)(F)(F)(F)F.O=c1c([O-])c(-c2ccc(Cl)cc2)oc2ccccc12.[W+4].c1cc[cH-]c1.c1cc[cH-]c1` [Compound 3, Bis(η^5-cyclopentadienyl)[2-(4-chlorophenyl)-3-(oxo-κO)-4(H)-chromen-4-oato-κO]tungsten(IV) hexafluorophosphate]: the spheroid growth result is “completely stop spheroid growth” in the data set with MCF-7 spheroids, “completely stop spheroid growth” in the data set on HT29 spheroids and “markedly reduced growth” in the data set with HCT116 spheroids [3]. In addition, the “precipitation in PBS” value in [1] is “slowly precipitate out of the solution over time”. The “interaction with plasmid dsDNA” value in the data set on pUC19 plasmid was “showing the ability to induce DNA nicks”. In the data set with HCT116 spheroids [2] (20 µM), the “reduction in number of KI67+ cells relative to untreated control” value worked out at 2.4 fold. Moreover, the “KI67+ cells” value in the data set with HCT116 spheroids [2] (20 µM) amounted to 15.8 ± 2.8%.
`F[P-](F)(F)(F)(F)F.[O-]c1c(-c2ccc(Cl)cc2)oc2ccccc2c1=S.[W+4].c1cc[cH-]c1.c1cc[cH-]c1` [Compound 4, Bis(η^5-cyclopentadienyl)[2-(4-chlorophenyl)-3-(oxo-κO)-4(H)-chromen-4-thionato-κS]tungsten(IV) hexafluorophosphate]: the results for the spheroid growth entry in the data set on MCF-7 spheroids, in the data set on HT29 spheroids and in the data set on HCT116 spheroids [3] were “completely stop spheroid growth”, “completely stop spheroid growth” and “completely stopped spheroid growth”, respectively. Besides, the “precipitation in PBS” value in [1] was “slowly precipitate out of the solution over time”. The “lower fluorescence intensity relative to DCF (5 µM) alone” value in data set [4] (DCF 5 µM + complex 20 µM) worked out at 36.8%; in [4] (DCF 5 µM + complex 200 µM), 77.2%. Also, the “reduction in number of KI67+ cells relative to untreated control” value in the data set with HCT116 spheroids [2] (15 µM) is listed as 2 fold. For the same molecule, the “KI67+ cells” value in the data set on HCT116 spheroids [2] (15 µM) is given as 19.1 ± 1.3%.
Turning to `F[P-](F)(F)(F)(F)F.O=C([O-])c1ccccn1.[W+4].c1cc[cH-]c1.c1cc[cH-]c1` [Compound 5, Bis(η^5-cyclopentadienyl)[2-(carboxylato-κO)-pyridine-κN]tungsten(IV) hexafluorophosphate], the results for the “viable cells [%] AV- / PI-” value with MCF-7 cells and in the data set with HT29 cells were 86.6 ± 7.6% and 91.5 ± 8.9%, respectively.
For the molecule `Cc1cc(=O)c([O-])co1.F[P-](F)(F)(F)(F)F.[W+4].c1cc[cH-]c1.c1cc[cH-]c1` [Compound 7, Bis(η^5-cyclopentadienyl)[2-methyl-5-(oxo-κO)-4-(1H)-pyran-4-ato-κO] tungsten(IV) hexafluorophosphate], in data set [1], the “precipitation in PBS” value is “slowly precipitate out of the solution over time”.
As to `Cc1cc(=S)c([O-])co1.F[P-](F)(F)(F)(F)F.[W+4].c1cc[cH-]c1.c1cc[cH-]c1` [Compound 8, Bis(η^5-cyclopentadienyl)[2-methyl-5-(oxo-κO)-pyran-4-(1H)-thionato-κS] tungsten(IV) hexafluorophosphate], the “precipitation in PBS” value in data set [1] was “slowly precipitate out of the solution over time”. For the same molecule, the “single-strand breaks (sc form to oc form)” value in the data set with pUC19 plasmid is given as 15 ± 2%.
As to `CCc1occc(=S)c1[O-].F[P-](F)(F)(F)(F)F.[W+4].c1cc[cH-]c1.c1cc[cH-]c1` [Compound 10, Bis(η^5-cyclopentadienyl)[2-ethyl-3-(oxo-κO)-4-(1H)-pyran-4-thionato-κS] tungsten(IV) hexafluorophosphate], the “precipitation in PBS” value in data set [1] is “slowly precipitate out of the solution over time”.
